For data set [1] the following is noted: 101.33 kPa, Liquid; for viscosity: Capillary tube (Ostwald / Ubbelohde) method; for mass density: Vibrating tube method.
Data set [2] can be described thus: refractive index (Na D-line) (dimensionless). The following applies: 101.33 kPa, Liquid, Standard Abbe refractometry.

The structures appear in SMILES notation. ± gives the expanded uncertainty stated by the source.

One may read the viscosity as the resistance of a fluid to flow. By mass density is commonly meant mass per unit of volume. The refractive index is the speed of light in vacuum divided by its phase velocity in the sample. Turning to `ClCCCl` [1,2-dichloroethane], the viscosity amounted to 0.7902 ± 0.0064 mPa·s in data set [1] (298.15 K), 0.7291 ± 0.006 mPa·s in data set [1] (303.15 K), 0.6739 ± 0.0056 mPa·s in data set [1] (308.15 K) and 0.6441 ± 0.0053 mPa·s in data set [1] (313.15 K). In addition, the mass density is reported as 1246.7 ± 0.4 kg/m3 in data set [1] (298.15 K), 1240.8 ± 0.4 kg/m3 in data set [1] (303.15 K), 1230.5 ± 0.4 kg/m3 in data set [1] (308.15 K) and 1225.6 ± 0.4 kg/m3 in data set [1] (313.15 K). Moreover, the refractive index was determined as 1.4416 ± 0.0005 in data set [2] (298.15 K), 1.4383 ± 0.0005 in data set [2] (303.15 K), 1.4336 ± 0.0005 in data set [2] (308.15 K) and 1.4311 ± 0.0005 in data set [2] (313.15 K).

On to `Brc1ccccc1` [bromobenzene], for which the viscosity in data set [1] (298.15 K) is 1.082 ± 0.0085 mPa·s; in data set [1] (303.15 K) it was 1.015 ± 0.008 mPa·s; in data set [1] (308.15 K), 0.954 ± 0.0076 mPa·s; in data set [1] (313.15 K) it was 0.878 ± 0.0071 mPa·s. Also, the mass density in data set [1] (298.15 K) is 1489.4 ± 0.7 kg/m3; in data set [1] (303.15 K), 1481.1 ± 0.7 kg/m3; in data set [1] (308.15 K) it was 1475.8 ± 0.7 kg/m3; in data set [1] (313.15 K), 1467.3 ± 0.6 kg/m3. The refractive index is given as 1.5578 ± 0.0005 in data set [2] (298.15 K), 1.5538 ± 0.0005 in data set [2] (303.15 K), 1.5514 ± 0.0005 in data set [2] (308.15 K) and 1.5468 ± 0.0005 in data set [2] (313.15 K).

With `Clc1ccccc1` [chlorobenzene], the viscosity stood at 0.7568 ± 0.0062 mPa·s in data set [1] (298.15 K), 0.7258 ± 0.0059 mPa·s in data set [1] (303.15 K), 0.677 ± 0.0056 mPa·s in data set [1] (308.15 K) and 0.624 ± 0.0052 mPa·s in data set [1] (313.15 K). In addition, the mass density in data set [1] (298.15 K) is reported as 1100.4 ± 0.3 kg/m3; in data set [1] (303.15 K), 1094.9 ± 0.3 kg/m3; in data set [1] (308.15 K), 1089.4 ± 0.3 kg/m3; in data set [1] (313.15 K), 1083.9 ± 0.3 kg/m3. The refractive index in data set [2] (298.15 K) is given as 1.5222 ± 0.0005; in data set [2] (303.15 K), 1.5192 ± 0.0005; in data set [2] (308.15 K), 1.5163 ± 0.0005; in data set [2] (313.15 K), 1.5115 ± 0.0005.

The record behind these values is the NIST ThermoML archive (doi:10.1021/je100552a).
